Test results published in patent US11780839B2, “Compounds for treating Huntington's disease” (PTC THERAPEUTICS, INC., priority 2018, dated 2023).

System: Endogenous Huntingtin Protein
Assay: Endogenous Huntingtin Protein Assay (ELISA-based Meso Scale Discovery electrochemiluminescence)
Type: cell-based
Conditions: MSD electrochemiluminescence, Table 1
In short: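 Sandwich MSD electrochemiluminescence immunoassay. Capture used MW1 (expanded polyglutamine) or MAB2166 antibody coated at 1 μg/mL overnight at 4 °C. Samples were bound overnight at 4 °C, then a rabbit monoclonal detection antibody and SULFO-TAG anti-rabbit, each at 0.25 μg/mL, were applied for 1 h at room temperature.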

SMILES	IC50
Cc1cc(-c2ccc(-c3cnc(N(C)C4CC(C)(C)NC(C)(C)C4)nn3)c(O)c2)nn2ccnc12 [Cpd 303, 5-(8-methylimidazo[1,2-b]pyridazin-6-yl)-2-{3-[methyl(2,2,6,6-tetramethylpiperidin-4-yl)amino]-1,2,4-triazin-6-yl}phenol]	≤ 100 nM
COc1cc(-c2ccc(-c3cnc(N4CC5(CCN(C)CC5)C4)nn3)c(O)c2)ncn1 [Cpd 243, 5-(6-methoxypyrimidin-4-yl)-2-[3-(7-methyl-2,7-diazaspiro[3.5]nonan-2-yl)-1,2,4-triazin-6-yl]phenol]	≤ 100 nM
Cn1ncc2cc(-c3ccc(-c4cnc(N[C@H]5CC(C)(C)NC(C)(C)[C@H]5F)nn4)c(O)c3)ccc21 [Cpd 260, 2-(3-{[(3S,4S)-3-fluoro-2,2,6,6-tetramethylpiperidin-4-yl]amino}-1,2,4-triazin-6-yl)-5-(1-methyl-1H-indazol-5-yl)phenol]	≤ 100 nM
CC1(C)CC(Nc2ncc(-c3ccc(-c4cn5ccccc5n4)cc3O)nn2)CC(C)(C)N1 [Cpd 360, 5-(imidazo[1,2-a]pyridin-2-yl)-2-{3-[(2,2,6,6-tetramethylpiperidin-4-yl)amino]-1,2,4-triazin-6-yl}phenol]	100 to 500 nM
CN(C)[C@@H]1CC[C@@H]2CN(c3ncc(-c4ccc(-c5cn[nH]c5)cc4O)nn3)C[C@@H]21 [Cpd 162, 2-{3-[(3aR,4R,6aS)-4-(dimethylamino)hexahydrocyclopenta[c]pyrrol-2(1H)-yl]-1,2,4-triazin-6-yl}-5-(1H-pyrazol-4-yl)phenol]	100 to 500 nM
Cc1nsc(-c2ccc(-c3cnc(N(C)C4CC(C)(C)NC(C)(C)C4)nn3)c(O)c2)n1 [Cpd 66, 2-{3-[methyl(2,2,6,6-tetramethylpiperidin-4-yl)amino]-1,2,4-triazin-6-yl}-5-(3-methyl-1,2,4-thiadiazol-5-yl)phenol]	≤ 100 nM
CN(c1ncc(-c2ccc(-n3cncn3)cc2O)nn1)C1CC(C)(C)NC(C)(C)C1 [Cpd 79, 2-{3-[methyl(2,2,6,6-tetramethylpiperidin-4-yl)amino]-1,2,4-triazin-6-yl}-5-(1H-1,2,4-triazol-1-yl)phenol]	≤ 100 nM
CN(c1ncc(-c2ccc(-c3cc(CN)c4nccn4n3)cc2O)nn1)C1CC(C)(C)NC(C)(C)C1 [Cpd 351, 5-[8-(aminomethyl)imidazo[1,2-b]pyridazin-6-yl]-2-{3-[methyl(2,2,6,6-tetramethylpiperidin-4-yl)amino]-1,2,4-triazin-6-yl}phenol]	≤ 100 nM
CN1CCC[C@H]2CN(c3ncc(-c4ccc(-c5cn[nH]c5)cc4O)nn3)C[C@H]21 [Cpd 310, 2-{3-[(4aS,7aS)-1-methyloctahydro-6H-pyrrolo[3,4-b]pyridin-6-yl]-1,2,4-triazin-6-yl}-5-(1H-pyrazol-4-yl)phenol]	100 to 500 nM
Oc1cc(-c2cn[nH]c2)ccc1-c1cnc(N2CCC(NC34CC(C3)C4)C2)nn1 (stereo not drawn) [Cpd 349, 2-(3-{3-[(bicyclo[1.1.1]pentan-1-yl)amino]pyrrolidin-l-yl}-1,2,4-triazin-6-yl)-5-(1H-pyrazol-4-yl)phenol]	100 to 500 nM
Cn1ncc2cc(-c3ccc(-c4cnc(NC5CC(C)(C)NC(C)(C)C5)nn4)c(O)c3)cnc21 [Cpd 321, 5-(1-methyl-1H-pyrazolo[3,4-b]pyridin-5-yl)-2-{3-[(2,2,6,6-tetramethylpiperidin-4-yl)amino]-1,2,4-triazin-6-yl}phenol]	≤ 100 nM
CN(c1ncc(-c2ccc(-c3ccnnc3)cc2O)nn1)C1CC(C)(C)NC(C)(C)C1 [Cpd 60, 2-{3-[methyl(2,2,6,6-tetramethylpiperidin-4-yl)amino]-1,2,4-triazin-6-yl}-5-(pyridazin-4-yl)phenol]	≤ 100 nM
CC1(C)C[C@@H](Nc2ncc(-c3ccc(-c4c[nH]nc4F)cc3O)nn2)[C@@H](F)C(C)(C)N1 [Cpd 189, 5-(3-fluoro-1H-pyrazol-4-yl)-2-(3-{[(3R,4R)-3-fluoro-2,2,6,6-tetramethylpiperidin-4-yl]amino}-1,2,4-triazin-6-yl)phenol]	≤ 100 nM
CN(c1ncc(-c2ccc(-c3c[nH]nc3Cl)cc2O)nn1)C1CC(C)(C)NC(C)(C)C1 [Cpd 57, 5-(3-chloro-1H-pyrazol-4-yl)-2-{3-[methyl(2,2,6,6-tetramethylpiperidin-4-yl)amino]-1,2,4-triazin-6-yl}phenol]	≤ 100 nM
CN(C)C1CCN(c2ncc(-c3ccc(-c4cn[nH]c4)cc3O)nn2)C1 (stereo not drawn) [Cpd 318, 2-{3-[3-(dimethylamino)pyrrolidin-1-yl]-1,2,4-triazin-6-yl}-5-(1H-pyrazol-4-yl)phenol]	100 to 500 nM
CC(C)NC1CCN(c2ncc(-c3ccc(-c4cnc5c(cnn5C)c4)cc3O)nn2)C1 (stereo not drawn) [Cpd 307, 5-(1-methyl-1H-pyrazolo[3,4-b]pyridin-5-yl)-2-(3-{3-[(propan-2-yl)amino]pyrrolidin-1-yl}-1,2,4-triazin-6-yl)phenol]	> 500 nM
Oc1cc(-c2cn[nH]c2)ccc1-c1cnc(N2CCC3(CCCNC3)CC2)nn1 [Cpd 180, 2-[3-(2,9-diazaspiro[5.5]undecan-9-yl)-1,2,4-triazin-6-yl]-5-(1H-pyrazol-4-yl)phenol]	1000 to 3000 nM
CN(c1ncc(-c2ccc(-c3cnc4c(cnn4C)c3)cc2O)nn1)C1CC(C)(C)NC(C)(C)C1 [Cpd 176, 5-(1-methyl-1H-pyrazolo[3,4-b]pyridin-5-yl)-2-{3-[methyl(2,2,6,6-tetramethylpiperidin-4-yl)amino]-1,2,4-triazin-6-yl}phenol]	≤ 100 nM

SMILES	IC50
CNC1CCN(c2ncc(-c3ccc(-c4ncco4)cc3O)nn2)C1 (stereo not drawn) [Cpd 358, 2-{3-[3-(methylamino)pyrrolidin-l-yl]-1,2,4-triazin-6-yl}-5-(1,3-oxazol-2-yl)phenol]	100 to 500 nM
Oc1cc(-c2cn[nH]c2)ccc1-c1cnc(N2CCC(NC3COC3)C2)nn1 (stereo not drawn) [Cpd 312, 2-(3-{3-[(oxetan-3-yl)amino]pyrrolidin-1-yl}-1,2,4-triazin-6-yl)-5-(1H-pyrazol-4-yl)phenol]	1000 to 3000 nM
CNCC1CCN(c2ncc(-c3ccc(-c4cn[nH]c4)cc3O)nn2)C1 (stereo not drawn) [Cpd 413, 2-(3-{3-[(methylamino)methyl]pyrrolidin-1-yl}-1,2,4-triazin-6-yl)-5-(1H-pyrazol-4-yl)phenol]	≤ 100 nM
CN1CCCC2(CCN(c3ncc(-c4ccc(-c5cn[nH]c5)cc4O)nn3)CC2)C1 [Cpd 182, 2-[3-(2-methyl-2,9-diazaspiro[5.5]undecan-9-yl)-1,2,4-triazin-6-yl]-5-(1H-pyrazol-4-yl)phenol]	> 500 nM
CN(c1ncc(-c2ccc(-n3cccn3)cc2O)nn1)C1CC(C)(C)NC(C)(C)C1 [Cpd 17, 2-{3-[methyl(2,2,6,6-tetramethylpiperidin-4-yl)amino]-1,2,4-triazin-6-yl}-5-(1H-pyrazol-1-yl)phenol]	100 to 500 nM
CC(C)NC1CCN(c2ncc(-c3ccc(-n4cc(F)cn4)cc3O)nn2)C1 (stereo not drawn) [Cpd 338, 5-(4-fluoro-1H-pyrazol-1-yl)-2-(3-{3-[(propan-2-yl)amino]pyrrolidin-1-yl}-1,2,4-triazin-6-yl)phenol]	100 to 500 nM
CN[C@@H]1CN(c2ncc(-c3ccc(-c4cn[nH]c4)cc3O)nn2)C[C@H]1OC [Cpd 346, 2-{3-[(3R,4R)-3-methoxy-4-(methylamino)pyrrolidin-1-yl]-1,2,4-triazin-6-yl}-5-(1H-pyrazol-4-yl)phenol]	> 500 nM
Oc1cc(-c2cn[nH]c2)ccc1-c1cnc(N2CC3(CCCNC3)C2)nn1 [Cpd 109, 2-[3-(2,6-diazaspiro[3.5]nonan-2-yl)-1,2,4-triazin-6-yl]-5-(1H-pyrazol-4-yl)phenol]	100 to 500 nM
CN(c1ncc(-c2ccc(-c3ccc4nnnn4n3)cc2O)nn1)C1CC(C)(C)NC(C)(C)C1 [Cpd 178, 2-{3-[methyl(2,2,6,6-tetramethylpiperidin-4-yl)amino]-1,2,4-triazin-6-yl}-5-(tetrazolo[1,5-b]pyridazin-6-yl)phenol]	≤ 100 nM
Cc1cnc(-c2ccc(-c3cnc(N(C)C4CC(C)(C)NC(C)(C)C4)nn3)c(O)c2)nc1 [Cpd 128, 5-(5-methylpyrimidin-2-yl)-2-{3-[methyl(2,2,6,6-tetramethylpiperidin-4-yl)amino]-1,2,4-triazin-6-yl}phenol]	100 to 500 nM
CN(c1ncc(-c2ccc(-c3ccc4c(ncn4C)n3)cc2O)nn1)C1CC(C)(C)NC(C)(C)C1 [Cpd 164, 5-(1-methyl-1H-imidazo[4,5-b]pyridin-5-yl)-2-{3-[methyl(2,2,6,6-tetramethylpiperidin-4-yl)amino]-1,2,4-triazin-6-yl}phenol]	100 to 500 nM
CC(C)(C)NC1CCN(c2ncc(-c3ccc(-n4ccnc4)cc3O)nn2)C1 (stereo not drawn) [Cpd 187, 2-{3-[3-(tert-butylamino)pyrrolidin-l-yl]-1,2,4-triazin-6-yl}-5-(1H-imidazol-1-yl)phenol]	100 to 500 nM
Oc1cc(-c2cn[nH]c2)ccc1-c1cnc(N2CCNCC2)nn1 [Cpd 328, 2-[3-(piperazin-1-yl)-1,2,4-triazin-6-yl]-5-(1H-pyrazol-4-yl)phenol]	100 to 500 nM
CNC1CCN(c2ncc(-c3ccc(-c4ccn(C)n4)cc3O)nn2)C1 (stereo not drawn) [Cpd 296, 2-{3-[3-(methylamino)pyrrolidin-1-yl]-1,2,4-triazin-6-yl}-5-(1-methyl-1H-pyrazol-3-yl)phenol]	1000 to 3000 nM
CC1(C)C[C@@H](Nc2ncc(-c3ccc(-c4cn[nH]c4)cc3O)nn2)[C@@H](F)C(C)(C)N1 [Cpd 323, 2-(3-{[(3R,4R)-3-fluoro-2,2,6,6-tetramethylpiperidin-4-yl]amino}-1,2,4-triazin-6-yl)-5-(1H-pyrazol-4-yl)phenol]	≤ 100 nM
CN(c1cnc(-c2ccc(-c3ccn(C)n3)cc2O)nn1)C1CC(C)(C)NC(C)(C)C1 [Cpd 343, 5-(1-methyl-1H-pyrazol-3-yl)-2-{6-[methyl(2,2,6,6-tetramethylpiperidin-4-yl)amino]-1,2,4-triazin-3-yl}phenol]	≤ 100 nM
CC1(C)CC(Nc2ncc(-c3ccc(-c4cncnn4)cc3O)nn2)CC(C)(C)N1 [Cpd 305, 2-{3-[(2,2,6,6-tetramethylpiperidin-4-yl)amino]-1,2,4-triazin-6-yl}-5-(1,2,4-triazin-6-yl)phenol]	≤ 100 nM
CN1CCC2(CC1)CN(c1ncc(-c3ccc(-n4nccn4)cc3O)nn1)C2 [Cpd 232, 2-[3-(7-methyl-2,7-diazaspiro[3.5]nonan-2-yl)-1,2,4-triazin-6-yl]-5-(2H-1,2,3-triazol-2-yl)phenol]	≤ 100 nM
